Measured values taken from patent US20030092638A1, “Protopanaxadiol and protopanaxatriol and their use as anti-cancer agents” (priority 2001, published 2003).
Read-outs that look alike come from different tables or passages of the source.

Key:
[1] = tested on: B16 melanoma tumor cells
Method: Cells were treated with various concentrations of the compounds and the viability was measured 24 hours post treatment.

[2] = tested on: MCF7 cells; settings: MCF7 (drug sensitive)
Method: (§1) Cells were either treated with various concentrations of paclitexal alone or in the presence of 20 μg/ml Rh2, 6 μg/ml PPT or PPD.

[3] = tested on: MCF7r cells; settings: MCF7r (drug resistant)
Method: as §1

[4] = tested on: MCF7 cells; test: cells; settings: Homo sapiens, MCF7, read-out: IC50 of taxol
Method: as §1

[5] = tested on: MCF7r cells; test: cells; settings: Homo sapiens, read-out: IC50 of taxol
Method: as §1

Compound: CC(C)=CCCC(C)(O)[C@H]1CC[C@]2(C)[C@@H]1[C@H](O)C[C@@H]1[C@@]3(C)CC[C@H](O)C(C)(C)[C@@H]3CC[C@]12C (stereo in doubt) [Protopanaxadiol, protopanaxadiol]
- Tumor inhibitory effect (cytotoxicity) compared with Rh2 [1]: more potent tumor inhibitory effect than Rh2
- Enhancement of IC50 of taxol versus taxol only ([2]; compound at 6 μg/ml): (18 fold
- Enhancement of IC50 of taxol versus taxol only ([3]; compound at 6 μg/ml): (29517 fold

Compound: CC(C)=CCC[C@](C)(O)[C@H]1CC[C@]2(C)[C@@H]1[C@H](O)C[C@@H]1[C@@]3(C)CC[C@H](O)C(C)(C)[C@@H]3[C@@H](O)C[C@]12C [Protopanaxatrial, protopanaxatriol]
- Tumor inhibitory effect (cytotoxicity) compared with Rh2 [1]: more potent tumor inhibitory effect than Rh2
- Enhancement of IC50 of taxol versus taxol only ([2]; compound at 6 μg/ml): (4.9 fold
- Enhancement of IC50 of taxol versus taxol only ([3]; compound at 6 μg/ml): (1744 fold

Compound: CC(C)=CCC[C@](C)(O)[C@H]1CC[C@]2(C)[C@@H]1[C@H](O)C[C@@H]1[C@@]3(C)CC[C@H](O[C@@H]4O[C@H](CO)[C@@H](O)[C@H](O)[C@H]4O)C(C)(C)[C@@H]3CC[C@]12C [Rh2, 3-O-β-D-glucopyranosyl-20(s)-protopanaxadiol, reference compound]
- Enhancement of IC50 of taxol versus taxol only ([2]; compound at 20 μg/ml): (3.65 fold
- Enhancement of IC50 of taxol versus taxol only ([3]; compound at 20 μg/ml): (4470 fold

Compound: CC(=O)O[C@H]1C(=O)[C@@]2(C)[C@H]([C@H](OC(=O)c3ccccc3)[C@]3(O)C[C@H](OC(=O)[C@H](O)[C@@H](NC(=O)c4ccccc4)c4ccccc4)C(C)=C1C3(C)C)[C@]1(OC(C)=O)CO[C@@H]1C[C@@H]2O [Taxol, paclitaxel]
- IC50 [4]: 0.225 µM
- IC50 [5]: 0.93 µM
